The source of these data is ChEMBL document CHEMBL1122800, “Synthesis of a tricyclic aphidicolin analogue that inhibits DNA synthesis in vitro” (J Med Chem, 1984).

In general, inhibition refers to the percentage by which the read-out fell short of the control.

Activity calls are given as the source filed them. The rule behind the calls is not given here.

The first assay deals with Nucleic Acid. As to the kind of experiment: Ability of compound to inhibit DNA synthesis against the uptake of [3H]thymidine in freshly seeded cultures of SV-40 transformed WI-38 human lung fibroblast; NA = no activity.
For `C[C@]12CCC(O)[C@@](C)(CO)[C@@H]1CCC1CC(O)C=C12` (some centres not stated), the inhibition entry is “inactive”.
Regarding `C[C@@]1(CO)C(O)CC[C@]2(C)C3CC(=O)CC3CC[C@@H]12` (some centres not stated), the inhibition result was “inactive”.
On the same count and under the same terms, for `C[C@]12CCC(O)[C@@](C)(CO)[C@@H]1CCC1CC(=O)C[C@@H]12` (some centres not stated) the value was “inactive”; for `C[C@]12CCC(O)[C@@](C)(CO)[C@@H]1CCC1C[C@H](O)C[C@@H]12` (some centres not stated), “inactive”; for `C[C@]12CCC(O)[C@@](C)(CO)[C@@H]1CCC1CC(=O)C=C12` (some centres not stated), “inactive”.

A further assay relates to Nucleic Acid. In words: Ability of compound to inhibit DNA synthesis against the uptake of [3H]thymidine in freshly seeded cultures of SV-40 transformed WI-38 human lung fibroblast at a concentration 0.15 ug/mL.
`C[C@@]1(CO)C(O)CC[C@]2(C)C3CC(O)CC3CC[C@@H]12` (some centres not stated) displayed an inhibition of 50%.
`C[C@@]1(CO)[C@H](O)CC[C@@]2(C)[C@H]1CC[C@H]1C[C@@H]3C[C@@]12CC[C@]3(O)CO` yielded an inhibition of 50%.
